# Experimental data as given in PMC5867678 (Journal of Medicinal Chemistry, 2018).
# Entries after “also recorded” stand apart in the source; their conditions may differ. Where two headings read alike, the source gives them in different places.
# Columns and labels:
# [1] = Microsomal stability, CD-1 mouse liver microsomes; type: in vitro ADME; settings: for remaining at 0.5 h, 0.5 μM: 30 min (data in parentheses)
# [2] = Microsomal stability, human liver microsomes; type: in vitro ADME; settings: pooled human liver microsomes; for remaining at 0.5 h, 0.5 μM: 30 min (data in parentheses)
# Mouse pharmacokinetics = settings: in vivo; for AUC(0-t) / Cmax: female, BALB/c, 40 mg/kg; for AUC(0-t) / Cmax / bioavailability: po; for bioavailability: male
# [3] = human, in vivo; cited from earlier work
# [4] = system: Salmonella typhimurium (TA98 and TA100); settings: cited from earlier work
# [5] = system: Salmonella typhimurium (TA98 and TA100); test: Ames test (Mini-Ames reverse mutation screen); type: cell-based; settings: strains TA98 and TA100, with or without S9
# Excerpt: Two strains of Salmonella typhimurium (TA98 and TA100) were employed, in the presence and absence of metabolic activation (rat liver S9). Positive controls (2-aminoanthracene, 2-nitrofluorene, and sodium azide) and a negative (DMSO solvent) control were included.
# [6] = cited from earlier work
# Caco-2 = system: Caco-2; design: method as in PMID 25261338; settings: Caco-2 data; cited from earlier work
# Hamster pharmacokinetics = test: Hamster pharmacokinetics; design: species or system golden Syrian hamsters; settings: female, golden Syrian, in vivo, po
# [7] = Permeability assay in MDCK-MDR1 cells; settings: dog
# Rat pharmacokinetics = test: Rat pharmacokinetics; design: species or system Sprague-Dawley rats; settings: male, Sprague-Dawley, in vivo, po, 40 mg/kg
# Protocol: All studies were conducted in fasted animals (either male Sprague-Dawley rats or female golden Syrian hamsters) by WuXi AppTec (Shanghai) Co., Ltd. Intravenous dosing (at 1 mg/kg for rats and 2 mg/kg for hamsters) utilized a solution formulation of 20% NMP and 40% PEG-400 in citrate buffer (pH 3). In rats, oral dosing (at 40–50 mg/kg) was as a suspension in 0.08% Tween 80 and 0.5% CMC in water, whereas PEG-400 was the vehicle employed for oral dosing in hamsters (at 40–50 mg/kg). Plasma samples (at 0.083 for iv only, 0.25, 0.5, 1, 2, 4, 8, and 24 h) were analyzed by LC–MS/MS, and the PK parameters were calculated using Phoenix WinNonlin software (version 6.3).
structure (smiles),measurement,setting,value
O=[N+]([O-])c1cn2c(n1)OC[C@@H](OCc1ccc(-c3ccc(OC(F)F)cc3)cn1)C2 [S-92],"remaining at 0.5 h, 0.5 μM",[1],> 70%
same,"remaining at 0.5 h, 0.5 μM",[2],> 70%
O=[N+]([O-])c1cn2c(n1)OC[C@@H](OCc1cccc(-c3ccc(F)cc3)n1)C2 [S-81],"remaining at 0.5 h, 0.5 μM",[1],> 70%
same,"remaining at 0.5 h, 0.5 μM",[2],> 70%
O=[N+]([O-])c1cn2c(n1)OC[C@H](OCc1ccc(-c3ccc(OC(F)(F)F)cc3F)cn1)C2 [R-89],AUC(0-t),Mouse pharmacokinetics,265 µg·h/mL
same,Cmax,Mouse pharmacokinetics,32000 ng/mL
O=[N+]([O-])c1cn2c(n1)OC[C@H](OCc1ccc(-c3ccc(OC(F)(F)F)cc3)cn1)C2 [R-84],AUC(0-t),Mouse pharmacokinetics,211 µg·h/mL
same,Cmax,Mouse pharmacokinetics,16000 ng/mL
"O=[N+]([O-])c1cn2c(n1)OC[C@@H](OCc1ccc(OC(F)(F)F)cc1)C2 [S-1, (6S)-2-nitro-6-{[4-(trifluoromethoxy)benzyl]oxy}-6,7-dihydro-5H-imidazo[2,1-b][1,3]oxazine]",half-life in clinical trials for TB,[3],16 to 18 h
O=[N+]([O-])c1cn2c(n1)OC[C@@H](OCc1ccc(-c3ccc(OC(F)(F)F)cc3F)cn1)C2 [S-89],"remaining at 0.5 h, 0.5 μM",[1],> 70%
same,"remaining at 0.5 h, 0.5 μM",[2],> 70%
O=[N+]([O-])c1cn2c(n1)OCC(COc1ccc(-c3ccc(F)cc3)nc1)C2 (stereo not drawn) [compound 117],bioavailability,Mouse pharmacokinetics; Swiss albino,11 to 15%
O=[N+]([O-])c1cn2c(n1)OCC(COc1ccc(-c3ccc(OC(F)(F)F)cc3)nc1)C2 (stereo not drawn) [compound 116],bioavailability,Mouse pharmacokinetics; Swiss albino,11 to 15%
CSc1ccc(OCc2ncc([N+](=O)[O-])n2C)cc1 [fexinidazole],Ames test result,[4],positive
"O=[N+]([O-])c1cn2c(n1)OC[C@H](Oc1ccc(C(F)(F)F)cn1)C2 [R-136, (6R)-2-Nitro-6-{[5-(trifluoromethyl)pyridin-2-yl]oxy}-6,7-dihydro-5H-imidazo[2,1-b][1,3]oxazine]","remaining at 1 h, 1 μM",[1],90 to 92%
same,mutagenic effect (Ames test),[5],positive
same,"remaining at 1 h, 1 μM",[2],90 to 92%
C[C@]1(COc2ccc(OC(F)(F)F)cc2)Cn2cc([N+](=O)[O-])nc2O1 [compound 4],LogD (measured),[6],3.10
same,"permeability, Papp A to B",Caco-2,22.6 ×10^–6 cm/s
same,"permeability, Papp B to A",Caco-2,24.7 ×10^–6 cm/s
same,mutagenic effect (Ames test),[4],no
O=[N+]([O-])c1cn2c(n1)OC[C@@H](OCc1ccc(-c3ccc(OC(F)(F)F)cc3Cl)cn1)C2 [S-91],"remaining at 0.5 h, 0.5 μM",[1],> 70%
same,"remaining at 0.5 h, 0.5 μM",[2],> 70%
O=[N+]([O-])c1cn2c(n1)OC[C@H](OCc1ccc(-c3ccc(F)cc3F)cn1)C2 [R-96],"remaining at 1 h, 1 μM",[1],57 to 59%
same,bioavailability,Hamster pharmacokinetics,21 to 37%
same,"remaining at 1 h, 1 μM",[2],57 to 59%
"O=[N+]([O-])c1cn2c(n1)OC[C@H](Oc1ccc(OC(F)(F)F)cc1)C2 [R-6, (6R)-2-Nitro-6-[4-(trifluoromethoxy)phenoxy]-6,7-dihydro-5H-imidazo[2,1-b][1,3]oxazine]",mutagenic effect (Ames test),[5],negative; also recorded: no ^d
same,"Papp A→B at […], 2 µM",[7],32.4 ×10⁻⁶ cm/s
same,AUC(0-t),Mouse pharmacokinetics,272 µg·h/mL
same,Cmax,Mouse pharmacokinetics,21000 ng/mL
same,AUC(0-t),Rat pharmacokinetics,80.6 µg·h/mL
same,Cmax,Rat pharmacokinetics,5200 ng/mL
O=[N+]([O-])c1cn2c(n1)OC[C@@H](OCc1cccc(-c3ccc(OC(F)(F)F)cc3)n1)C2 [S-77],"remaining at 0.5 h, 0.5 μM",[1],> 70%
same,"remaining at 0.5 h, 0.5 μM",[2],> 70%
O=[N+]([O-])c1cn2c(n1)OC[C@H](OCc1ccc(-c3ccc(F)cc3F)nc1)C2 [R-106],bioavailability,Hamster pharmacokinetics,21 to 37%
O=[N+]([O-])c1cn2c(n1)OCC(COc1ccc(OC(F)(F)F)cc1)C2 (stereo not drawn) [compound 24],half-life,"Mouse pharmacokinetics; Swiss albino, iv, 1 mg/kg",2 h
